This note sets out measurements from EPA's ToxRefDB 2.

Structures are written as SMILES.

The subject of data set [1] is mouse. As to conditions: Subchronic oral toxicity in rodents, b6c3f1, Feed, dose end: 13 week, group: systemic.
Data set [2] concerns rat. Particulars: Subchronic oral toxicity in rodents, sprague dawley, Feed, dose end: 13 week, group: systemic.
For another data set, the system named is hamster. As to conditions: Subchronic oral toxicity in rodents, golden syrian, Feed, dose end: 13 week, group: systemic.
In data set [3] the test system is mouse. Particulars: Multigenerational reproductive toxicity study, cd1, Oral, Water, dose end: 2 generation.
Data set [4] has as its system rat. As to conditions: Prenatal developmental toxicity study; wistar; Inhalation; Whole-Body; dose end: 20 GD; group: developmental; developmental / developmental malformation / heart / dilatation.
The test system of data set [5] is rabbit. As to conditions: Prenatal developmental toxicity study; himalayan; Inhalation; Whole-Body; dose end: 29 GD; group: developmental; developmental / developmental malformation / heart / adhesions + developmental / developmental malformation / kidney / dilatation.
Data set [6] relates to mouse. Particulars: Combined chronic toxicity/carcinogenicity; other; Oral; Feed; dose end: 365 day; group: systemic; systemic / in life observation / body weight / body weight.
Data set [7] relates to rat. As to conditions: Combined chronic toxicity/carcinogenicity; fischer; Oral; Feed; dose end: 365 day; group: systemic; systemic / pathology microscopic / liver / hepatocellular carcinoma + systemic / pathology microscopic / testes / adenoma + systemic / in ….
Data set [8] concerns rat. As to conditions: Prenatal developmental toxicity study, sprague dawley, Oral, Gavage/Intubation, dose end: 20 GD.
Data set [9] deals with rat. As to conditions: Multigenerational reproductive toxicity study, wistar, Oral, Feed, dose end: 2 generation.
The test system of data set [10] is rabbit. As to conditions: Prenatal developmental toxicity study, new zealand white, Oral, Gavage/Intubation, dose end: 28 GD.
For data set [11], the system named is mouse. As to conditions: Sub-acute repeat dose toxicity, Oral, Gavage/Intubation, dose end: 28 day.
Data set [12] concerns mouse. Particulars: Chronic toxicity, Oral, Gavage/Intubation, dose end: 182 day.
Data set [13] has as its system dog. Particulars: Sub-acute repeat dose toxicity, beagle, Oral, Gavage/Intubation, dose end: 14 day, group: systemic.
Data set [14] has as its system dog. Particulars: Chronic toxicity, beagle, Oral, Gavage/Intubation, dose end: 182 day, group: systemic.
For data set [15], the system named is dog. As to conditions: Sub-acute repeat dose toxicity, beagle, Oral, Gavage/Intubation, dose end: 28 day, group: systemic.
For data set [16], the system named is mouse. As to conditions: Sub-acute repeat dose toxicity, Oral, Gavage/Intubation, dose end: 28 day. The source holds these as a separate data set.
Data set [17] has as its system dog. As to conditions: Chronic toxicity, beagle, Oral, Gavage/Intubation, dose end: 182 day, group: systemic, systemic / in life observation / clinical signs / defecation (diarrhea) + systemic / in life observation / clinical signs / feces.
Data set [18] relates to mouse. Particulars: Sub-acute repeat dose toxicity, Oral, Gavage/Intubation, dose end: 14 day, group: systemic.
[19] abbreviates: systemic / in life observation / body weight / body weight + systemic / in life observation / body weight / body weight gain + systemic / ….
Where [20] appears, read: systemic / pathology microscopic / liver / cytoplasmic alteration + systemic / clinical chemistry / cholesterol / cholesterol + systemic / ….
Setting [21] is: systemic / clinical chemistry / alkaline phosphatase (alp/alk) / alkaline phosphatase (alp/alk) + systemic / organ weight / kidney / ….
[22] abbreviates: group: offspring, systemic / in life observation / body weight / offspring (pup) weight.
Setting [23] is: group: parental, systemic / organ weight / kidney / relative to body weight + systemic / organ weight / epididymis / relative to body weight + systemic / ….
[24] abbreviates: group: developmental, developmental / developmental malformation / bone / incomplete ossification + developmental / developmental malformation / bone / short + ….
Setting [25] is: group: maternal, systemic / in life observation / body weight / body weight gain + systemic / in life observation / clinical signs / salivation + systemic / ….
[26] abbreviates: group: offspring, developmental / offspring survival late / viability index / viability index + systemic / in life observation / body weight / offspring (pup….
Setting [27] is: group: parental, systemic / pathology microscopic / thyroid gland / colloid content.
Setting [28] is: group: parental, systemic / pathology microscopic / thyroid gland / colloid content + systemic / organ weight / thyroid gland / absolute + systemic / organ ….
The mark [29] stands for this setting: group: developmental, developmental / developmental malformation / bone / [other] + developmental / developmental malformation / bone / extra ossification site + ….
Setting [30] is: group: maternal, systemic / in life observation / body weight / body weight gain + systemic / in life observation / food consumption / food consumption.
[31] abbreviates: group: maternal, reproductive / reproductive performance / estrous cycle / absent corpora lutea.
The mark [32] stands for this setting: group: systemic, systemic / clinical chemistry / alkaline phosphatase (alp/alk) / alkaline phosphatase (alp/alk) + systemic / hematology / mean corpuscular (….
Where [33] appears, read: group: systemic, systemic / hematology / mean corpuscular (cell) volume (mcv) / mean corpuscular (cell) volume (mcv) + systemic / hematology / mean ….
The mark [34] stands for this setting: group: reproductive, reproductive / reproductive performance / estrous cycle / absent corpora lutea.
Where [35] appears, read: group: systemic, systemic / hematology / erythrocyte (rbc) count differential / erythrocyte (rbc) + systemic / in life observation / body weight / body ….
The mark [36] stands for this setting: systemic / in life observation / body weight / body weight + systemic / in life observation / clinical signs / defecation (diarrhea) + ….
Where [37] appears, read: systemic / pathology gross / oral mucosa / discolored.
Setting [38] is: systemic / in life observation / clinical signs / abnormal feces.
[39] abbreviates: systemic / in life observation / clinical signs / abnormal feces + systemic / in life observation / body weight / body weight + systemic / ….
Setting [40] is: systemic / clinical chemistry / cholesterol / cholesterol + systemic / clinical chemistry / triglycerides / triglycerides + systemic / ….
The mark [41] stands for this setting: systemic / in life observation / clinical signs / defecation (diarrhea) + systemic / in life observation / clinical signs / delayed sexual ….
The mark [42] stands for this setting: systemic / clinical chemistry / albumin / albumin + systemic / clinical chemistry / protein / protein + systemic / hematology / erythrocyte….
Where [43] appears, read: systemic / in life observation / body weight / body weight.

Broadly, the LOAEL is the lowest tested level that showed an adverse finding. One may read the NOAEL as the highest tested level that showed no adverse finding. With `Cc1cccc(Nc2cc(Cl)nc(SCC(=O)O)n2)c1C` [Pirinixic acid], the LOAEL was 22 mg/kg/day with mouse [1] (setting [19]), 3 mg/kg/day in the data set with rat [2] (systemic / pathology microscopic / liver / cytoplasmic alteration + systemic / in life observation / body weight / body weight + systemic / …) and 0.7 mg/kg/day with hamster (setting [19]). Moreover, the no observed adverse effect level (NOAEL) was found to be 12 mg/kg/day in the data set on mouse [1] (setting [19]), 0.6 mg/kg/day in the data set with rat [2] (setting [21]) and 0.4 mg/kg/day with hamster (setting [19]). Also, the LEL worked out at 0.9 mg/kg/day in the data set on mouse [1] (setting [20]), 0.3 mg/kg/day in the data set on rat [2] (setting [21]) and 0.4 mg/kg/day in the data set with hamster (setting [20]). In addition, the NEL in the data set on mouse [1] (setting [20]) was less than 0.9 mg/kg/day; in the data set on rat [2] (setting [21]), less than 0.3 mg/kg/day; with hamster (setting [20]), less than 0.4 mg/kg/day.

As for `CC(=O)OCCOCCOCCOC(C)=O` [Triethylene glycol diacetate], in the data set with mouse [3] (setting [22]), the LEL was found to be 4000 mg/kg/day, the LOAEL was more than 4000 mg/kg/day, the NEL amounted to 2000 mg/kg/day and the NOAEL is not below 4000 mg/kg/day. Further, the NEL in the data set with mouse [3] (group: parental, systemic / organ weight / kidney / relative to body weight) worked out at 2000 mg/kg/day. Besides, in the data set on mouse [3] (setting [23]), the LEL stood at 4000 mg/kg/day, the LOAEL was more than 4000 mg/kg/day and the NOAEL is not below 4000 mg/kg/day.

Consider `CC(C)CO` [2-Methyl-1-propanol], for which, in the data set on rat [4], the LEL came out at 10 ppm, the LOAEL is more than 10 ppm, the NEL was 2.5 ppm and the NOAEL is not below 10 ppm. Also, in the data set with rabbit [5], the LEL was found to be 10 mg/L, the LOAEL was more than 10 ppm, the NEL turned out to be 2.5 ppm and the NOAEL is not below 10 ppm.

On to `NC(=O)CCCCC(N)=O` [Adipamide], for which, in the data set with mouse [6], the LEL came out at 3600 mg/kg/day, the LOAEL was more than 3600 mg/kg/day, the NEL is less than 3600 mg/kg/day and the no-observed-adverse-effect level (NOAEL) is not below 3600 mg/kg/day. Also, in the data set with rat [7], the LEL was determined as 1200 mg/kg/day, the LOAEL was more than 1200 mg/kg/day, the NEL is less than 1200 mg/kg/day and the NOAEL is not below 1200 mg/kg/day.

Take `Cc1[nH]n(C)c(=O)c1C(=O)c1ccc(C(F)(F)F)cc1S(C)(=O)=O` [Pyrasulfotole]: the LEL in the data set with rat [8] (setting [24]) was determined as 100 mg/kg/day; with rat [8] (setting [25]), 100 mg/kg/day; in the data set on rat [9] (setting [26]), 3.68 mg/kg/day; in the data set on rat [9] (setting [28]) it was 2.5 mg/kg/day; in the data set on rabbit [10] (setting [29]) it was 75 mg/kg/day; with rabbit [10] (setting [30]), 250 mg/kg/day. The LOAEL was 100 mg/kg/day with rat [8] (setting [24]); 100 mg/kg/day in the data set on rat [8] (setting [25]); more than 354 mg/kg/day with rat [9] (setting [26]); 2.5 mg/kg/day in the data set with rat [9] (setting [27]); 75 mg/kg/day with rabbit [10] (setting [29]); 250 mg/kg/day in the data set on rabbit [10] (setting [30]). Besides, the NEL is 10 mg/kg/day in the data set on rat [8] (setting [24]); 10 mg/kg/day in the data set on rat [8] (setting [25]); less than 3.68 mg/kg/day with rat [9] (setting [26]); less than 2.5 mg/kg/day in the data set on rat [9] (setting [28]); 10 mg/kg/day in the data set with rabbit [10] (setting [29]); 75 mg/kg/day in the data set with rabbit [10] (setting [30]). The NOAEL was 10 mg/kg/day in the data set with rat [8] (setting [24]); 10 mg/kg/day in the data set on rat [8] (setting [25]); not below 354 mg/kg/day in the data set on rat [9] (setting [26]); less than 2.5 mg/kg/day with rat [9] (setting [27]); 10 mg/kg/day with rabbit [10] (setting [29]); 75 mg/kg/day in the data set with rabbit [10] (setting [30]).

On to `CNC(=O)c1ccccc1Sc1ccc2c(/C=C/c3ccccn3)n[nH]c2c1` [Axitinib], for which the LEL in the data set on mouse [11] (setting [31]) is 125 mg/kg/day; with mouse [11] (setting [33]), 15 mg/kg/day; with mouse [12] (setting [34]), 5 mg/kg/day; with mouse [12] (group: systemic, systemic / hematology / erythrocyte (rbc) count differential / erythrocyte (rbc) + systemic / in life observation / clinical signs / poor …), 15 mg/kg/day; with dog [13] (setting [37]), 12 mg/kg/day; in the data set with dog [14] (setting [38]), 1 mg/kg/day. The LEL in the data set with dog [15] (setting [41]) turned out to be 5 mg/kg/day; in the data set on mouse [16] (setting [31]), 125 mg/kg/day; with mouse [16] (setting [33]), 15 mg/kg/day; in the data set on dog [17], 1 mg/kg/day; with mouse [18] (setting [43]), 25 mg/kg/day. The LOAEL with mouse [11] (setting [31]) is more than 125 mg/kg/day; with mouse [11] (setting [32]) it was more than 125 mg/kg/day; in the data set on mouse [12] (setting [34]), more than 125 mg/kg/day; in the data set with mouse [12] (setting [35]) it was more than 125 mg/kg/day; in the data set on dog [13] (setting [36]), more than 150 mg/kg/day; with dog [14] (setting [39]), more than 5 mg/kg/day. Moreover, the LOAEL in the data set on dog [15] (setting [40]) is more than 50 mg/kg/day; with mouse [16] (setting [31]), more than 125 mg/kg/day; in the data set with mouse [16] (setting [32]), more than 125 mg/kg/day; with dog [17], more than 5 mg/kg/day; in the data set with mouse [18] (setting [42]), more than 250 mg/kg/day. In addition, the NEL with mouse [11] (setting [31]) is 15 mg/kg/day; in the data set with mouse [11] (setting [32]), 5 mg/kg/day; in the data set with mouse [12] (setting [34]), less than 5 mg/kg/day; with mouse [12] (setting [35]) it was 5 mg/kg/day; in the data set on dog [13] (setting [37]), less than 12 mg/kg/day; with dog [14] (setting [38]), less than 1 mg/kg/day. The NEL in the data set on dog [15] (setting [41]) was less than 5 mg/kg/day; with mouse [16] (setting [31]) it was 15 mg/kg/day; in the data set on mouse [16] (setting [32]), 5 mg/kg/day; in the data set on dog [17] it was less than 1 mg/kg/day; in the data set on mouse [18] (setting [43]), less than 25 mg/kg/day. The NOAEL in the data set with mouse [11] (setting [31]) is not below 125 mg/kg/day; in the data set with mouse [11] (setting [32]) it was not below 125 mg/kg/day; in the data set with mouse [12] (setting [34]), not below 125 mg/kg/day; in the data set with mouse [12] (setting [35]) it was not below 125 mg/kg/day; in the data set with dog [13] (setting [36]), not below 150 mg/kg/day; in the data set with dog [14] (setting [39]), not below 5 mg/kg/day. Also, the NOAEL is not below 50 mg/kg/day in the data set with dog [15] (setting [40]); not below 125 mg/kg/day in the data set with mouse [16] (setting [31]); not below 125 mg/kg/day in the data set with mouse [16] (setting [32]); not below 5 mg/kg/day in the data set with dog [17]; not below 250 mg/kg/day with mouse [18] (setting [42]).
